Data on four molecules can be found in doi:10.1101/2025.05.27.656397, “A new heme enzyme family forms hydrazine groups in diverse biosynthetic pathways” (bioRxiv, 2025).

One test addresses T1, KinIJ (Streptomyces murayamaensis, UniProt A0A385LMJ2).
T1 construct: gene kinJ; heterodimer, His6 tag on one or both proteins, expressed aerobically in E. coli and purified anaerobically; KinI co-purified or added separately; with Ferredoxin KinI
The experiment in a line: LC-MS detection of L-hydrazinosuccinate. The class given is biochemical. Conditions: methyl or benzyl viologen, anaerobic.

The target in another test is T2, KinJ (Streptomyces murayamaensis, UniProt A0A385LMJ2).
T2 construct: monomeric when expressed alone; contains heme b
Briefly: EPR spectroscopy. The class given is binding. The note with it: ferric enzyme; axial ligand of heme; no ferredoxin.

The target of test [1] is FzmP, co-expressed with KinI (not stated (Streptomyces sp. S-149 or Streptomyces sp. XY332 cloned)). Briefly: SEC; anaerobic size exclusion chromatography of proteins expressed alone or co-expressed and purified. For orientation: Size exclusion chromatography separates by hydrodynamic size, large species first.
The target in test [2] is T3, KinJ from Streptomyces murayamaensis ATCC 21414 (tag placement not stated for the experiment) (Streptomyces murayamaensis ATCC 21414, UniProt A0A385LMJ2).
T3 chain: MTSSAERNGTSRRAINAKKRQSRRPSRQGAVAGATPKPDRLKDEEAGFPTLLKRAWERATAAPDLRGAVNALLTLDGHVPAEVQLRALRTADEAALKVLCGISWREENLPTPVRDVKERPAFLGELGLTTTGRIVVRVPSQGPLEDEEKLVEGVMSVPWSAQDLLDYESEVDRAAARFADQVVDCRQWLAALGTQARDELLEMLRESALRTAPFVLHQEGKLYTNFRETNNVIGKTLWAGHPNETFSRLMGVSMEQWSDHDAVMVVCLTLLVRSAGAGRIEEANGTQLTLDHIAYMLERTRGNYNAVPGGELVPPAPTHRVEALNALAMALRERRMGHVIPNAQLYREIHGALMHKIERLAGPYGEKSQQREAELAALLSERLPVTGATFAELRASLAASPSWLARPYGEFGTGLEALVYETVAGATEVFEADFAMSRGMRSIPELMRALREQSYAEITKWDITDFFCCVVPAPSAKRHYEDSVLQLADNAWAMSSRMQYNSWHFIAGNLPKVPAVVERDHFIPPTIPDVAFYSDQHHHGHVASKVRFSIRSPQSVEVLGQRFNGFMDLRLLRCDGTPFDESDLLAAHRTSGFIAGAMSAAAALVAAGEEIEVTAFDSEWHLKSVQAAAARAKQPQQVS
Briefly: reciprocal His6 co-purification (pull-down) and anaerobic SEC of the co-expressed complex; co-expressed in E. coli and purified anaerobically as a complex.

With `N[C@@H](CC(=O)O)C(=O)O` [L-aspartate], the “LC-MS detection of L-hydrazinosuccinate” value on KinIJ (NaNO2, sodium dithionite) is “indicating the formation of an N–N bond-containing product from L-Asp and NO2^–”.

For `O=NO` [NO2^–], the EPR spectroscopy result at KinJ is “addition of NO2^– (a strong field ligand) was associated with the formation of a 6-coordinate rhombic”. Besides, the “LC-MS detection of L-hydrazinosuccinate” value at KinIJ (L-aspartate, sodium dithionite, 15N-labelled nitrite also used) was “indicating the formation of an N–N bond-containing product from L-Asp and NO2^–”.

Consider FzmP, co-expressed with KinI (enzyme), for which the stoichiometry N – broadly, a count of units in the complex or per binding partner – in test [1] is 2.

B1: KinI (ferredoxin; tag placement not stated for the experiment) (protein)
chain: MPTNTSDDSLDETVEGSVSGRDKLIAERTRSETWKKPPRRIERAECITCDTCLRACPPEFNAIFDNGLDVVIIPELCSGCPKCVLECPVDCIYVDEDWTPTTDEMWKHIGLTAEGVS
Regarding B1, the binding result in test [2] is reported as “binds”.
